We go through ten molecules from patent US20240360175A1, “PEPTIDE DERIVATIVES AND RELATED USES AS OREXIN AGONISTS” (Centessa Pharmaceuticals (UK) Limited, priority 2021, published 2024).

Like-named read-outs stand apart in the source and are kept apart here. Square brackets hold non-standard residues; d marks the D form. Ends that are not written are not given here. Peptide text beside a SMILES is read from it. * marks the point of attachment. Malonyl(2,2-Me2,histaminyl) = CC(C)(C(=O)NCCc1cnc[nH]1)C(=O)*; hArg(Et2) = CCN=C(NCC)NCCCC[C@H](N)C(=O)O; Gly(NCH2CH2Ph) = O=C(O)CNCCc1ccccc1; PEG6 = NCCOCCOCCOCCOCCOCCOCCC(=O)O; Hyp = O=C(O)[C@@H]1C[C@@H](O)CN1; Hpg = N[C@H](C(=O)O)c1ccc(O)cc1; NMeN = CN[C@@H](CC(N)=O)C(=O)O; Aoc(2) = CCCCCC[C@H](N)C(=O)O; NMeL = CN[C@@H](CC(C)C)C(=O)O; Ahp(2) = CCCCC[C@H](N)C(=O)O; Phg = N[C@H](C(=O)O)c1ccccc1; Nle = CCCC[C@H](N)C(=O)O

The target of assay [1] is T1, human orexin type 1 receptor (hOX1R) (Homo sapiens, UniProt O43613).
T1 construct: expressed in transfected cells
T1 sequence (O43613 1-425): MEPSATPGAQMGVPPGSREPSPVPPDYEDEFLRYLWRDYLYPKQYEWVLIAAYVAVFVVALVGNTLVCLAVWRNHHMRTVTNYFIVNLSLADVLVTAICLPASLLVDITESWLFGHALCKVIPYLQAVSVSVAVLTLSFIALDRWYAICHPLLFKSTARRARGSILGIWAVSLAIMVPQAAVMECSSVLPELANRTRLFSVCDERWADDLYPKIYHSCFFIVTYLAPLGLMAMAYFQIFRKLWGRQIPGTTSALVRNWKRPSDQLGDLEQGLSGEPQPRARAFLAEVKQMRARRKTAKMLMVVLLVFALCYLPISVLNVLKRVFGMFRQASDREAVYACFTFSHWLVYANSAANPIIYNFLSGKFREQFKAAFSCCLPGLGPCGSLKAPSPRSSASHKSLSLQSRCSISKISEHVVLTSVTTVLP
Put plainly: Measurement of orexin type 1 receptor agonist activity (FLIPR TETRA intracellular Ca2+ fluorescence). It is filed as cell-based. On the procedure: (§1) Stable cell line generation. Obtainment of cells stably expressing either human orexin type 2 or human orexin type 1 receptor: to obtain a stable cell line the Orexin receptor cDNA was inserted into pcDNA3.1(+) plasmid vector and clones identified by G418 drug resistance selection. […] A single clone for OX2R—CHO and OX1R—CHO were grown in bulk and frozen to generate a cell bank for routine screening.
(§2) Measurement of orexin type 1 receptor agonist activity. Chinese hamster ovary (CHO) cells expressing human orexin type 1 receptor (hOX1R) were seeded in each well of 384 well black clear bottom plates (BD Flacon) at 10,000 cells per well and cultured for 24 h in an Ham's F12 (Gibco) medium containing 10% fetal calf serum (Sigma Aldrich) under the conditions of 37° C., 5% CO2. After removal of the medium, 50 μL of assay buffer 1 (0.1% bovine serum albumin (Sigma Aldrich), 20 mM HEPES (Molecular Dimensions), […] probenecid (Sigma Aldrich), 1× Calcium 5 dye (Molecular Devices) in Hank's balanced salt solution (Invitrogen)) was added, and the cells were incubated for 60 min under the conditions of 37° C., 5% CO2. A test peptide was dissolved in dimethyl sulfoxide (Sigma Aldrich) to 1 mM, and then diluted with assay buffer 2 (20 mM HEPES, Hank's balanced salt solution, 0.1% bovine serum albumin). For the reaction, a test peptide solution (10 μl) was added using Fluorescent Imaging Plate Reader TETRA (FLIPR TETRA: manufactured by Molecular Devices), a fluorescence value (excitation wavelength 488 nm, measurement wavelength 570 nm) of each well was measured every one second for 2 min, and the agonist activity was determined using the area of the fluorescence value as an indicator of intracellular Ca^2+ concentration. The agonist activity of the test peptide was calculated assuming that the fluorescence value of the well added with only the dilution buffer was 0% and the fluorescence value of the well added with 10 nM human orexin A (Tocris) buffer was 100%. As used herein, Emax indicates the value at 1 μM concentration when orexin A is converted to a full agonist (maximum value of agonist activity: 100%).

The target in assay [2] is T2, human orexin type 2 receptor (hOX2R) (Homo sapiens, UniProt O43614).
T2 construct: expressed in transfected cells
T2 sequence (O43614 1-444): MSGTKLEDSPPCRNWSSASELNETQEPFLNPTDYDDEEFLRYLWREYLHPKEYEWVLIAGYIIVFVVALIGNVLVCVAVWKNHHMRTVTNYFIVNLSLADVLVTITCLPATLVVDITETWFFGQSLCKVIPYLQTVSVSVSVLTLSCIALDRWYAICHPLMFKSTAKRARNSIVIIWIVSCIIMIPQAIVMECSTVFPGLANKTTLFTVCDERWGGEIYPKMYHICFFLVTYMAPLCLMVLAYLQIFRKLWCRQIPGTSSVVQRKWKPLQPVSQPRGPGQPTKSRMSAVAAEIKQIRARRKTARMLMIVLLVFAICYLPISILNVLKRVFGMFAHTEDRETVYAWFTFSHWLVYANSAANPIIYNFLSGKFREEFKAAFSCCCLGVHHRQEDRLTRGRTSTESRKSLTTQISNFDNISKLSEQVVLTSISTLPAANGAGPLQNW
As to the kind of experiment: Measurement of orexin type 2 receptor agonist activity (FLIPR TETRA intracellular Ca2+ fluorescence). Type of assay: cell-based. As for the experimental part:
as §1
as §2, with “type 2” for “type 1”, “receptor (hOX2R)” for “receptor (hOX1R) were”

In assay [3] the test system is orexin-neuron ablated mice. The conditions noted are these: ICV; cited from earlier work.
The mark [4] stands for this setting: CHO cells expressing hOX1R, agonist activity, Ca2+ fluorescence, read-out: hOX1 pEC50 (converted).
The mark [5] stands for this setting: CHO cells expressing hOX2R, agonist activity, Ca2+ fluorescence, read-out: hOX2 pEC50 (converted).

Regarding `CCCCCC[C@H](NC(=O)[C@@H](NC(=O)[C@H](CC(C)C)NC(=O)[C@@H](NC(=O)CNC(=O)[C@@H](NC(=O)[C@H](C)NC(=O)[C@H](CCC(N)=O)NC(=O)[C@H](CC(N)=O)NC(=O)CN(CCc1ccccc1)C(=O)[C@@H](N)CCCCN/C(=N/CC)NCC)c1ccc(O)cc1)[C@@H](C)CC)[C@@H](C)O)C(N)=O` [Peptide 23] (H-[hArg(Et2)][Gly(NCH2CH2Ph)]NQA[Hpg]GILT[Aoc(2)]-NH2), the EC50 was more than 10 nM in assay [1] (setting [4]) and less than 0.1 nM in assay [2] (setting [5]).
In the same order, the values of `CCCCCC[C@H](NC(=O)[C@@H](NC(=O)[C@H](CC(C)C)NC(=O)[C@@H](NC(=O)CNC(=O)[C@@H](NC(=O)[C@H](C)NC(=O)[C@H](Cc1c[nH]cn1)NC(=O)[C@H](CC(N)=O)NC(=O)CN(CCc1ccccc1)C(=O)[C@@H](N)CCCCNC(=NCC)NCC)c1ccccc1)[C@@H](C)CC)[C@@H](C)O)C(N)=O` [Peptide 24] (H-[hArg(Et2)][Gly(NCH2CH2Ph)]NHA[Phg]GILT[Aoc(2)]-NH2; N-terminus assumed) are more than 10 nM and less than 0.1 nM.
Turning to `CCCCCC[C@H](NC(=O)[C@@H](NC(=O)[C@H](CC(C)C)NC(=O)[C@@H](NC(=O)CNC(=O)[C@@H](NC(=O)[C@H](C)NC(=O)[C@H](Cc1c[nH]cn1)NC(=O)[C@H](CC(N)=O)NC(=O)CN(CCc1ccccc1)C(=O)[C@H](CCCCNC(=NCC)NCC)NC(=O)C(C)(C)C(=O)NCCc1cnc[nH]1)c1ccc(O)cc1)[C@@H](C)CC)[C@@H](C)O)C(N)=O` [Peptide 25] ({Malonyl(2,2-Me2,histaminyl)}-[hArg(Et2)][Gly(NCH2CH2Ph)]NHA[Hpg]GILT[Aoc(2)]-NH2), the EC50 is more than 10 nM in assay [1] and less than 0.1 nM in assay [2].
The matching figures for `CCCCCC[C@H](NC(=O)[C@@H](NC(=O)[C@H](CC(C)C)NC(=O)[C@@H](NC(=O)CNC(=O)[C@@H](NC(=O)[C@H](C)NC(=O)[C@H](Cc1c[nH]cn1)NC(=O)[C@H](CC(N)=O)NC(=O)CN(CCc1ccccc1)C(=O)[C@H](CCCCNC(=NCC)NCC)NC(=O)[C@H](CCC(N)=O)NC(=O)C(C)(C)C(=O)NCCc1cnc[nH]1)c1ccccc1)[C@@H](C)CC)[C@@H](C)O)C(N)=O` [Peptide 26] ({Malonyl(2,2-Me2,histaminyl)}-Q[hArg(Et2)][Gly(NCH2CH2Ph)]NHA[Phg]GILT[Aoc(2)]-NH2): more than 10 nM and less than 0.1 nM.
Consider `CCCCC[C@H](NC(=O)[C@@H](NC(=O)[C@H](CC(C)C)NC(=O)[C@@H](NC(=O)CNC(=O)[C@@H](NC(=O)[C@H](C)NC(=O)[C@@H]1C[C@@H](O)CN1C(=O)[C@H](CC(N)=O)NC(=O)CN(CCc1ccccc1)C(=O)[C@H](CCCNC(=N)N)NC(=O)CCOCCOCCOCCOCCOCCOCCN)c1ccccc1)[C@@H](C)CC)[C@@H](C)O)C(N)=O` [Peptide 27] (H-[PEG6]R[Gly(NCH2CH2Ph)]N[Hyp]A[Phg]GILT[Ahp(2)]-NH2), for which the figures for the EC50 in assay [1] (setting [4]) and in assay [2] (setting [5]) were more than 10 nM and less than 0.1 nM, respectively.
Turning to `CCCC[C@H](NC(=O)[C@@H](NC(=O)[C@H](CC(C)C)NC(=O)[C@@H](NC(=O)CNC(=O)[C@@H](NC(=O)[C@H](C)NC(=O)[C@@H]1C[C@@H](O)CN1C(=O)[C@H](CC(N)=O)NC(=O)CN(CCc1ccccc1)C(=O)[C@H](CCCNC(=N)N)NC(=O)CCOCCOCCOCCOCCOCCOCCN)c1ccccc1)[C@@H](C)CC)[C@@H](C)O)C(N)=O` [Peptide 28] (H-[PEG6]R[Gly(NCH2CH2Ph)]N[Hyp]A[Phg]GILT[Nle]-NH2), the figures for the EC50 in assay [1] (setting [4]) and in assay [2] (setting [5]) were more than 10 nM and less than 0.1 nM, respectively.
On to `CCCCCC[C@H](NC(=O)[C@@H](NC(=O)[C@H](CC(C)C)N(C)C(=O)[C@@H](NC(=O)CNC(=O)[C@@H](NC(=O)[C@H](C)NC(=O)[C@@H]1C[C@@H](O)CN1C(=O)[C@H](CC(N)=O)NC(=O)CN(CCc1ccccc1)C(=O)[C@H](CCCNC(=N)N)NC(=O)CCOCCOCCOCCOCCOCCOCCN)c1ccccc1)[C@@H](C)CC)[C@@H](C)O)C(N)=O` [Peptide 29] (H-[PEG6]R[Gly(NCH2CH2Ph)]N[Hyp]A[Phg]GI[NMeL]T[Aoc(2)]-NH2), for which the results for the EC50 in assay [1] (setting [4]) and in assay [2] (setting [5]) were more than 10 nM and less than 0.1 nM, respectively.
`CCCCC[C@H](NC(=O)[C@@H](NC(=O)[C@H](CC(C)C)NC(=O)[C@@H](NC(=O)CNC(=O)[C@@H](NC(=O)[C@H](C)NC(=O)[C@@H]1C[C@@H](O)CN1C(=O)[C@H](CC(N)=O)N(C)C(=O)CN(CCc1ccccc1)C(=O)[C@H](CCCNC(=N)N)NC(=O)CCOCCOCCOCCOCCOCCOCCN)c1ccccc1)[C@@H](C)CC)[C@@H](C)O)C(N)=O` [Peptide 30] (H-[PEG6]R[Gly(NCH2CH2Ph)][NMeN][Hyp]A[Phg]GILT[Ahp(2)]-NH2): the EC50 in assay [1] (setting [4]) was more than 10 nM; in assay [2] (setting [5]) it was less than 0.1 nM.
For `CCCCCC[C@H](NC(=O)[C@@H](NC(=O)[C@H](CC(C)C)N(C)C(=O)[C@@H](NC(=O)CNC(=O)[C@@H](NC(=O)[C@H](C)NC(=O)[C@@H]1C[C@@H](O)CN1C(=O)[C@H](CC(N)=O)N(C)C(=O)CN(CCc1ccccc1)C(=O)[C@H](CCCNC(=N)N)NC(=O)CCOCCOCCOCCOCCOCCOCCN)c1ccccc1)[C@@H](C)CC)[C@@H](C)O)C(N)=O` [Peptide 31] (H-[PEG6]R[Gly(NCH2CH2Ph)][NMeN][Hyp]A[Phg]GI[NMeL]T[Aoc(2)]-NH2), the EC50 in assay [1] (setting [4]) was more than 10 nM; in assay [2] (setting [5]), less than 0.1 nM.
With “orexin A (QPLPDCCRQKTCSCRLYELLHGAGNHAAGILTL; ends and bridges not checked; cysteine pairing not given here; UniProt O43612 34-66, looked up) [orexin A (OXA), orexin neuropeptide cleaved from prepro-orexin]”, in assay [3], the cataplexy-like behavior entry is on record as “decreases cataplexy-like behavior” and the time spent awake result is “increase time spent awake”.
